Data set [1] is described as follows: Reversed-phase HPLC retention (chromatographic behavior as indication of lipophilicity). Format: physicochemical. Particulars: RP-HPLC, Vydac C18 column (5 μm, 4.6 x 250 mm); A 0.1% TFA in water, B 80% acetonitrile in water with 0.1% TFA; linear gradient 0–100% B over 50 min; 1 mL/min; uncalibrated retention time. The text has this: During the routine LC-MS analysis of analogs RP-171 and RP-172, we noticed a distinct difference in retention times and MS^n patterns for these diastereoisomeric peptides. To confirm our observation, we subjected a mixture of these peptides to LC-MS and MS^n experiments. […] It is interesting that the elution order from the biphenyl column was the same as from the C18 column.
All protected α-amino acids were purchased from Bachem A (Bubendorf, Switzerland). Opioid radioligands, [^3H]DAMGO, [^3H]deltorphin-2, and [^3H]U-69593, and human recombinant opioid receptors were purchased from PerkinElmer (Krakow, Poland). GF/B glass fiber strips were obtained from Whatman (Brentford, UK). Purity of peptides was determined by RP-HPLC and exact mass. Analytical and semi-preparative RP-HPLC was performed using Waters Breeze instrument (Milford, MA, USA) with dual absorbance detector (Waters 2487, MA, USA). […] For LC-MS experiments, Aeris Peptide C18 and Kinetex Biphenyl (Phenomenex, Torrance, CA, USA) were used, in a gradient reversed-phase mode, from 5 to 80% acetonitrile in water (both containing 0.1% HCOOH). ^1H NMR spectra were recorded on a 500 MHz Brucker instrument in DMSO-d6, using residual DMSO as a resonance reference at 2.5 ppm. […]

The target in data set [2] is T1, MOR (Homo sapiens, UniProt P35372). Briefly: Opioid receptor binding assay, competitive displacement of [3H]DAMGO. More on the design: purchased PerkinElmer; host or cells: CHO cells. The method, then: (§1) The binding affinities of cyclopeptides RP-171 and RP-172 toward MOR, DOR, and KOR were determined by competitive binding against [^3H]DAMGO, [^3H][D-Ala^2]deltorphin-2, and U-69593, respectively, using membranes of CHO cells transfected with opioid receptors and are summarized in Table 1.
(§2) The opioid receptor binding assays were performed according to the described method, using commercial membranes of Chinese Hamster Ovary (CHO) cells transfected with human opioid receptors. The binding affinities for MOR, DOR, and KOR were determined by radioligand competition analysis using [^3H]DAMGO, [^3H]deltorphin-2, and [^3H]U-69593, respectively, as specific radioligands, respectively. Membrane preparations were incubated at 25 °C for 120 min with appropriate concentrations of a tested peptide in the presence of 0.5 nM radioligand in a total volume of 0.5 ml of 50 mM Tris/HCl (pH 7.4) containing bovine serum albumin (BSA) (1 mg/mL), bacitracin (50 µg/mL), bestatin (30 µM), and captopril (10 µM). Non-specific binding was determined in the presence of 1 µM naloxone. Incubations were terminated by the rapid filtration through the GF/B Whatman (Brentford, UK) glass fiber strips (pre-soaked for 2 h in 0.5% (v/v) polyethylamine) using Millipore Sampling Manifold (Billerica, MA, USA). The filters were washed three times with 4 ml of ice-cold Tris buffer solution. The bound radioactivity was measured in a Packard Tri-Carb 2100 TR liquid scintillation counter (Ramsey, MN, USA) after overnight extraction of the filters in 4 mL of a Perkin Elmer Ultima Gold scintillation fluid (Wellesley, MA, USA). Three independent experiments for each assay were carried out in duplicate. The data were analyzed by a nonlinear least square regression analysis computer program Graph Pad PRISM 6.0 (Graph Pad Software Inc., San Diego, CA, USA). The IC50 values were determined from the logarithmic concentration–displacement curves, and the values of the inhibitory constants (Ki) were calculated according to the equation of Cheng and Prusoff.
A general note: In a radioligand displacement assay an active substance lowers the binding of a labelled ligand.

The target in data set [3] is T2, DOR (Homo sapiens, UniProt P41143). Briefly: Opioid receptor binding assay, competitive displacement of [3H]deltorphin-2. More on the design: purchased PerkinElmer; host or cells: CHO cells. The procedure: as §1, §2
In data set [4] the target is T3, KOR (Homo sapiens, UniProt P41145). Put plainly: Opioid receptor binding assay, competitive displacement of [3H]U-69593. More on the design: purchased PerkinElmer; host or cells: CHO cells. The procedure:
as §1, §2

In data set [5] the target is T1, MOR. Briefly: Calcium mobilization assay, CHO-MOR cells. Format: cell-based. On the set-up: expressed in transfected cells; host or cells: CHO cells (gift from Prof. Girolamo Calo, University of Padova). The conditions noted are these: for MOR α ± SEM (intrinsic activity): Emax ratio of tested compound and standard agonist dermorphin, CHO cells co-expressing human MOR and Gαqi5. Background: Calcium flux is commonly read through the fluorescence of an indicator in the cells.

The target in data set [6] is T2, DOR. Briefly: Calcium mobilization assay, CHO-DOR cells. Format: cell-based. More on the design: expressed in transfected cells; host or cells: CHO cells (gift from Prof. Girolamo Calo, University of Padova). The conditions noted are these: n ≥ 3; for DOR pEC50 (CL95%): CHO cells co-expressing human recombinant DOR and GαqG66Di5, Fluo-4 AM fluorescence, FlexStation II; for DOR α ± SEM (intrinsic activity): Emax ratio of tested compound and standard agonist DPDPE, CHO cells co-expressing human DOR and GαqG66Di5.

In data set [7] the target is T3, KOR. Put plainly: Calcium mobilization assay, CHO-KOR cells. Format: cell-based. On the set-up: expressed in transfected cells; host or cells: CHO cells (gift from Prof. Girolamo Calo, University of Padova). The conditions noted are these: for KOR α ± SEM (intrinsic activity): Emax ratio of tested compound and standard agonist dynorphin A, CHO cells co-expressing human KOR and Gαqi5.

The conditions of data set [8]: compared with EM-2; cited from earlier work. The text has this:
Endomorphins are very short peptides lacking reactive side chain groups, which makes their cyclization difficult. […] In order to obtain cyclic analogs based on the structure of EM-2 but still to preserve the free N-terminal amino group, we introduced into the sequence of EM-2 additional amino acids with functionalized side chains. A pentapeptide analog Tyr-c[D-Lys-Phe-Phe-Asp]NH2 (designated RP-170), ...

The mark [9] stands for this setting: membranes of CHO cells transfected with human opioid receptors, 0.5 nM [3H]DAMGO, 25 °C, 120 min, 50 mM Tris/HCl pH 7.4, Cheng-Prusoff, mean ± SEM, n = 3, read-out: Ki MOR.
Where [10] appears, read: membranes of CHO cells transfected with human opioid receptors, 0.5 nM [3H]deltorphin-2, 25 °C, 120 min, 50 mM Tris/HCl pH 7.4, Cheng-Prusoff, mean ± SEM, n = 3, read-out: Ki DOR.
Setting [11] is: CHO cells co-expressing human recombinant MOR and Gαqi5, Fluo-4 AM fluorescence, FlexStation II, n ≥ 3, read-out: MOR pEC50 (CL95%) (converted).

Data on three compounds can be found in paper PMC8747000, “Synthesis, Pharmacological Evaluation, and Computational Studies of Cyclic Opioid Peptidomimetics Containing β^3-Lysine” (Molecules, 2021).

Like-named read-outs stand apart in the source and are kept apart here. Peptide text beside a SMILES is read from it. Some results are limits rather than exact numbers.

The Ki is a measure of affinity in units of concentration, obtained from inhibition or displacement. Regarding `NC(=O)[C@@H]1CC(=O)NCCC[C@@H](NC(=O)[C@@H](N)Cc2ccc(O)cc2)CC(=O)N[C@@H](Cc2ccccc2)C(=O)N[C@@H](Cc2ccccc2)C(=O)N1` [RP-171, Tyr-c[(R)-β^3-Lys-Phe-Phe-Asp]NH2], the “HPLC tR” value in data set [1] is reported as 14.05 min. Further, the inhibitory constant (Ki) is 29 ± 4.32 nM at MOR [2] (setting [9]); more than 1000 nM on DOR [3] (setting [10]); 420 ± 23 nM at KOR [4] (membranes of CHO cells transfected with human opioid receptors, 0.5 nM [3H]U-69593, 25 °C, 120 min, 50 mM Tris/HCl pH 7.4, Cheng-Prusoff, mean ± SEM, n = 3, SEM, read-out: Ki KOR). Besides, the “loss of affinity for KOR as compared with the parent RP-170” value on KOR [4] (ratio of Ki values versus RP-170) was 276 fold. The EC50 at MOR [5] (setting [11]) is 135 nM; on KOR [7] (CHO cells co-expressing human recombinant KOR and Gαqi5, Fluo-4 AM fluorescence, FlexStation II, n ≥ 3, read-out: KOR pEC50 (CL95%) (converted)) it was 1020 nM. For the same compound, at MOR [5] (n ≥ 3), the “MOR α ± SEM (intrinsic activity)” value stood at 0.82 ± 0.02. At DOR [6], the “DOR pEC50 (CL95%)” value was “inactive”. The “DOR α ± SEM (intrinsic activity)” value at DOR [6] was “inactive”. For the same compound, the “KOR α ± SEM (intrinsic activity)” value at KOR [7] (n ≥ 3) was 0.82; on KOR [7] (n ≥ 3, SEM), 0.82 ± 0.05.
`NC(=O)[C@@H]1CC(=O)NCCC[C@H](NC(=O)[C@@H](N)Cc2ccc(O)cc2)CC(=O)N[C@@H](Cc2ccccc2)C(=O)N[C@@H](Cc2ccccc2)C(=O)N1` [RP-172, Tyr-c[(S)-β^3-Lys-Phe-Phe-Asp]NH2]: the “HPLC tR” value in data set [1] came to 14.36 min. In addition, the Ki on MOR [2] (setting [9]) is 950 ± 45 nM; at DOR [3] (setting [10]), more than 1000 nM; at KOR [4] (membranes of CHO cells transfected with human opioid receptors, 0.5 nM [3H]U-69593, 25 °C, 120 min, 50 mM Tris/HCl pH 7.4, Cheng-Prusoff, mean ± SEM, n = 3, read-out: Ki KOR), more than 1000 nM. The EC50 at MOR [5] (setting [11]) is 3550 nM. Further, on MOR [5] (n ≥ 3), the “MOR α ± SEM (intrinsic activity)” value worked out at 0.45 ± 0.02. The “DOR pEC50 (CL95%)” value at DOR [6] is “inactive”. In addition, the “DOR α ± SEM (intrinsic activity)” value on DOR [6] is “inactive”. Further, the “KOR pEC50 (CL95%)” value on KOR [7] (CHO cells co-expressing human recombinant KOR and Gαqi5, Fluo-4 AM fluorescence, FlexStation II, n ≥ 3) was “inactive”. Besides, the “KOR α ± SEM (intrinsic activity)” value on KOR [7] (n ≥ 3) was “inactive”.
With `NC(=O)[C@@H]1CC(=O)NCCCC[C@@H](NC(=O)[C@@H](N)Cc2ccc(O)cc2)C(=O)N[C@@H](Cc2ccccc2)C(=O)N[C@@H](Cc2ccccc2)C(=O)N1` [RP-170, Tyr-c[D-Lys-Phe-Phe-Asp]NH2] (HELM PEPTIDE1{Y.[dK].F.F.D.[am]}$PEPTIDE1,PEPTIDE1,2:R3-5:R3$$$V2.0), the “stability in the rat brain homogenate” value in data set [8] was “much more stable than EM-2”. In addition, the values for the Ki at MOR [2] (SEM), on DOR [3] (SEM) and on KOR [4] (SEM) were 0.55 ± 0.02 nM, 198 ± 4.5 nM and 1.52 ± 0.2 nM, respectively. Further, the EC50 at MOR [5] was 1.17 nM; at KOR [7], 2.51 nM. Further, the “DOR pEC50 (CL95%)” value on DOR [6] is “inactive”. Further, the “DOR α ± SEM (intrinsic activity)” value on DOR [6] is “inactive”.
